Paper PMC4143179 (Journal of Natural Products, 2014)

How the values were obtained:
MDCK-MDR1 cells = conditions: transport with versus without verapamil
[1] = test system: MCF7 breast cancer cell line; experiment: Antiproliferation assay; type: cell-based
[2] = intravenous or inhaled administration; cited from earlier work
P-glycoprotein (P-gp) = conditions: cited from earlier work

SMILES: COC(=O)[C@@H]1C[C@H](OC(C)=O)C(=O)[C@H]2[C@@]1(C)CC[C@H]1C(=O)O[C@H](CC3=CC(=O)C(OC)=C(OC)C3=O)C[C@]21C [Compound 14, (2S,4aR,6aR,7R,9S,10aS,10bR)-Methyl 9-Acetoxy-2-[(4,5-dimethoxy-3,6-dioxocyclohexa-1,4-dien-1-yl)methyl]-6a,10b-dimethyl-4,10-dioxododecahydro-1H-benzo[f]isochromene-7-carboxylate]
- efflux by P-gp (in words) (MDCK-MDR1 cells): actively effluxed by P-gp

SMILES: COC(=O)[C@@H]1C[C@H](OC(C)=O)C(=O)[C@H]2[C@@]1(C)CC[C@H]1C(=O)O[C@H](CC3=CC(=O)C(OC)=CC3=O)C[C@]21C [Compound 15, (2S,4aR,6aR,7R,9S,10aS,10bR)-Methyl 9-Acetoxy-2-[(4-methoxy-3,6-dioxocyclohexa-1,4-dien-1-yl)methyl]-6a,10b-dimethyl-4,10-dioxododecahydro-1H-benzo[f]isochromene-7-carboxylate]
- efflux by P-gp (in words) (MDCK-MDR1 cells): actively effluxed by P-gp

SMILES: COC(=O)[C@@H]1C[C@H](OC(C)=O)C(=O)[C@H]2[C@@]1(C)CC[C@H]1C(=O)O[C@H](c3ccoc3)C[C@]21C [Salvinorin A, salvinorin A]
- antiproliferative effects (in words) [1]: did not show any detectable antiproliferative effects
- time to cross the blood–brain barrier [2]: ≤ 1 min
- P-glycoprotein substrate (in words) (P-glycoprotein (P-gp)): substrate for P-glycoprotein
- efflux by P-gp (in words) (MDCK-MDR1 cells): actively effluxed by P-gp

SMILES: Cn1c(=O)c2c(ncn2C)n(C)c1=O [caffeine]
- efflux by P-gp (in words) (MDCK-MDR1 cells): limited efflux by P-gp

SMILES: COc1cc2nc(N3CCN(C(=O)c4ccco4)CC3)nc(N)c2cc1OC [prazosin]
- efflux by P-gp (in words) (MDCK-MDR1 cells): actively effluxed by P-gp
